Read-outs that look alike come from different tables or passages of the source.
Legend:
polyamine transporter = test: Inhibition of [3H]putrescine uptake in ZR-75-1 cells; format: cell-based, human; conditions: for Mode of inhibition of [3H]putrescine uptake: Lineweaver-Burke, DESC up to 100 μM, MESC up to 200 μM; for Ki: ZR-75-1 cells
Experimental: The rate of putrescine and spermidine transport was determined in ZR-75-1 cells incubated in serum-free RPMI 1640 medium as described (Lessard, M., Zhao, C., Singh, S. M. and Poulin, R. 1995. J. Biol. Chem. 270: 1685-1694), using [^3H]putrescine (30 Ci/mol) and [^3H]spermidine (20 Ci/mol), respectively as substrates for a 20 minute-assay period. Spermine uptake was similarly determined, using 1 μM [^14C]spermine (32 Ci/mol) as substrate. Uptake activity was expressed per amount of DNA as fluorometrically determined using 3,4-diaminobenzoic acid (Simard, J., Dauvois, S., Haagensen, D. E., Lėvesque, C., Mėrand, Y. and Labrie, F. 1990. Endocrinology, 126: 3223-3231). For the determination of spermidine uptake activity in CHO-K1 cells, 80% confluent cell monolayers were rinsed twice with PBS and incubated for 20 minutes at 37° C. in 400 μl of buffer A (20 mM Tris-HCl, pH 7.4; 0.42 mM CaCl2; 0.41 mM MgSO4; 103 mM NaCl; 5.7 mM KCl; 1.1 mM D-glucose) containing 5 μM [^3H]spermidine (20 Ci/mol). Cell cultures were then washed twice with 1 ml PBS containing 5.7 mM sym-norspermidine. Cells were then lysed with 200-μl aliquot of 1 N NaOH and incubated for 30 minutes at 60° C. After neutralization with 200 μl of 1 N HCl, radioactivity was determined from a 250-μl of the cell lysate by scintillation counting. Uptake activity was expressed per amount of total cellular protein as determined by the method of Bradford (Bradford, M. M. 1976. Anal. Biochem. 72: 248-254). Non-specific binding of radioactive substrate was similarly determined in parallel for both cell lines after a 15 second-incubation with 400 μl of ice-cold uptake solution.
Kinetic analysis of polyamine transport was performed by determining uptake activity in the presence of a 3 μM [^3H]putrescine or 1 μM [^3H]spermidine plus increasing concentrations of nonradioactive substrate. K[…] Ki and Vmax values were then estimated by Lineweaver-Burke analysis. For competitive inhibitors, Ki values were also estimated by measuring uptake activity in the presence of logarithmically increasing concentrations of antagonist, and using the Cheng-Prusoff equation (Cheng, Y.-C. and Prusoff, W. H. 1973. Biochem. Pharmacol. 22: 3099-3108) by iterative curve fitting for a sigmoidal curve. For mixed competitive/noncompetitive inhibition, two methods were used to calculate kinetic constants. First, the equation [drawing 2] where v, s, and i are the transport velocity, substrate concentration and inhibitor concentration respectively, was used to calculate the inhibition constants for inhibitor/carrier complex formation (Ki) and carrier/inhibitor/substrate complex formation (Ki′) (Dixon, M. and Webb, E. C. 1976. Enzymes, 3rd Ed., Academic Press, San Diego, Calif.). Alternatively, the value of Ki for a mixed competitor/non-competitor was estimated from the intersect of equations v^−1 vs i at two different substrate concentrations (Dixon, M. and Webb, E. C. 1976. Enzymes, 3rd Ed., Academic Press, San Diego, Calif.). Intracellular Accumulation
In order to evaluate the effectiveness of dimeric triamines as polyamine transport inhibitors, we synthesized N,N′-bis(3-aminopropyl),N,N′-bis(4-aminobutyl)cystamine or BABAC (structure 1, FIG. 25; FIG. 31), and its thiol form N-(3-aminopropyl),N-(4-aminobutyl)cysteamine or AAC (FIG. 31) according to Scheme 4 described above (FIG. 30), using spermidine as a precursor polyamine. The ability of BABAC and AAC to inhibit the intracellular uptake of radio-labeled putrescine and spermidine in the ZR-75-1 human breast cancer cell line was then determined according to standard published procedures (Lessard, et al. and Poulin, et al.) Briefly, ZR-75-1 cells were grown for four days in twenty-four well plates in RPMI 1640 medium supplemented with 10% fetal bovine serum.

ZR-75-1 cells = test: Effect on ZR-75-1 cell proliferation (11 days, DNA content); format: cell-based, human
Experimental: For growth studies, ZR-75-1 cells were cultured in MEZR medium or in phenol red-free RPMI 1640 supplemented with 2 mM L-glutamine, 1 mM sodium pyruvate, 15 mM Hepes, antibiotics, 1 nM 17β-estradiol, 0.5 μg of bovine insulin per ml and 5% (v/v) charcoal-treated fetal bovine serum (SD medium), as indicated in the text. When polyamines or polyamine analogs were added to serum-containing media, 1 mM aminoguanidine was added to inhibit bovine serum amine oxidase (BSAO) activity (Morgan, D. M. L. 1989, in The Physiology of Polyamines (Bachrach, U., and Heimer, Y. M. eds) Vol. I, pp. 203-229, CRC Press, Boca Raton). The effect of the transport inhibitors on cell growth was measured by incubating ZR-75-1 cells for 11 days in medium supplemented with antagonist, polyamines and/or 1 mM DFMO as indicated, followed by colorimetric determination of DNA content with 3,4-diaminobenzoic acid (Simard, J., Dauvois, S., Haagensen, D. E., Lėvesque C., Mėrand, Y. and Labriė, F. 1990. Endocrinology 126: 3223-3231). Medium was changed every other day in these experiments because of the slow reaction of the compound with an unknown component present in the IMEM and RPMI 1640 medium formulation.
The biocompatibility of DESC, MESC, and DEASC was thus evaluated during a long-term (11-day) incubation with ZR-75-1 cells grown in RPMI 1640 containing 10% (v/v) FBS in the absence and presence of 1 mM aminoguanidine. […] Weak growth inhibition caused by the mixed MESC-cysteamine disulfide, however, apparently involved degradation by a copper amine oxidase.

[1] = this work, DEASC: Ki of mixed competitive/non-competitive model, read-out: Ki, putrescine transport

Structure (SMILES) | Mode of inhibition of [3H]putrescine uptake (polyamine transporter) | Ki (polyamine transporter; FIG. 32, 20 μM and 3 μM substrate, respectively, read-out: Apparent Ki, putrescine uptake) | Ki (polyamine transporter; [1]) | Effect on cell growth (ZR-75-1 cells; 50 μM, with or without 1 mM aminoguanidine) | Effect on cell growth (ZR-75-1 cells; 200 μM) | Decrease in cell growth (ZR-75-1 cells; 200 μM, not blocked by aminoguanidine)
NCCCNCCCC(NCCCN)C(=O)NCCSSCCNC(=O)C(CCCNCCCN)NCCCN (centres unmarked) [DESC, 2,2′-dithiobis(N-ethyl-spermine-5-carboxamide)] | pure competitive inhibitors | 540 nM | 1600 ± 500 nM | only mildly growth inhibitory | abrupt, aminoguanidine-resistant increase in toxicity | 
NCCCNCCCC(NCCCN)C(=O)NCCS (centres unmarked) [MESC, N-(2-mercaptoethyl)spermine-5-carboxamide] | pure competitive inhibitors |  | 22000 ± 3000 nM |  |  | 35%
